Test results reported in BindingDB's records for patent US12344612 (Genentech, 2025).

Target: T1, Receptor-interacting serine/threonine-protein kinase 1 (Homo sapiens, UniProt Q13546)
T1 sequence (Q13546 whole entry): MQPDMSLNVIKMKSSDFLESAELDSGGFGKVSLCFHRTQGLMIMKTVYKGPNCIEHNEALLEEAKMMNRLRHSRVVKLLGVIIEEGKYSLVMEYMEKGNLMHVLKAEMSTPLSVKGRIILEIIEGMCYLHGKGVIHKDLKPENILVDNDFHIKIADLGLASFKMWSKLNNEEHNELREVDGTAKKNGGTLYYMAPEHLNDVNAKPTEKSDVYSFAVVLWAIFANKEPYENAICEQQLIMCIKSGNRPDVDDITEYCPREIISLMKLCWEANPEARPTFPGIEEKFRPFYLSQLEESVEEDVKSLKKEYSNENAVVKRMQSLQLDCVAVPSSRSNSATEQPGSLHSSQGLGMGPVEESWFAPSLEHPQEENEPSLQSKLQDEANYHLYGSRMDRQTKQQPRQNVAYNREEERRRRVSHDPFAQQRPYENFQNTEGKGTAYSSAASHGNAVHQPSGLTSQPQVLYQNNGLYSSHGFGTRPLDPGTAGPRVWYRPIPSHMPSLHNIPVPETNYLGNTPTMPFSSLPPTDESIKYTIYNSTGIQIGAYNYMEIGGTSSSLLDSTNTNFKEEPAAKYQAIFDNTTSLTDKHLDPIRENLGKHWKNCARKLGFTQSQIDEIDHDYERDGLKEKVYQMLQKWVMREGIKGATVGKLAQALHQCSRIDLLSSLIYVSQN
Assay: Not found
Text: Not found

Ki: 51 nM
SMILES: O=C(c1nc2n(n1)CC[C@H]2c1ccccc1)C1CC1 (single isomer, unassigned) [US12344612, Example 10]
